Reference: patent US20130189764A1, “SELECTIVE GROWTH MEDIA” (Oxide Limited, priority 2000, published 2013)
≈ marks a conversion by molar mass, not a printed value.

What was measured:
E. coli strains = experiment: inhibition of E. coli strains on DMSal agar for selective growth of Salmonella (Example 16); assay type: cell-based, Escherichia coli; conditions: added to DMSal, selective growth of Salmonella strains
Description: (§1) The experiments were conducted as follows: nutrient agar medium was autoclaved and, on cooling (but prior to setting) filter-sterilised alaphosphin or AEP were incorporated at final concentrations of 1 mM, 2 mM, 5 mM and 10 mM, and the medium used to pour plates. Control plates were prepared using nutrient agar without alaphosphin or AEP. A single colony of the organism under test was inoculated in 10 ml of nutrient broth and incubated (without agitation) at 37° C. for 4 hours.
(§2) Trp-AEP was compared to alaphosphin (Ala-AEP) for selective growth of Salmonella strains on DMSal agar.

Streptococcus pneumonaie = experiment: MIC on DMSal agar (Example 15); assay type: cell-based; conditions: 5 strains
Yersinia enterocolitica = experiment: MIC on DMSal agar (Example 15); assay type: cell-based; conditions: 2 strains
Salmonella = conditions: 16 strains, DMSal agar
Description: as §1

Citrobacter freundii = experiment: MIC on DMSal agar (Example 15); assay type: cell-based; conditions: 4 strains
Description: as §1, with “[…],” for “nutrient agar medium was autoclaved and,”

[1] = test system: Staphylococcus haemolyticus; experiment: MIC on DMSal agar (Example 15); assay type: cell-based; conditions: 1 strain
Description: as §1, with “[…],” for “nutrient agar medium was autoclaved and,”

Proteus vulgaris = experiment: MIC on DMSal agar (Example 15); assay type: cell-based; conditions: 1 strain
Description: as §1, with “[…],” for “nutrient agar medium was autoclaved and,”

Group D Streptococcus = experiment: MIC on DMSal agar (Example 15); assay type: cell-based; conditions: 2 strains
Description: as §1, with “[…],” for “nutrient agar medium was autoclaved and,”

Shigella = experiment: MIC on DMSal agar (Example 15); assay type: cell-based; conditions: 3 strains
Description: as §1, with “[…],” for “nutrient agar medium was autoclaved and,”

Listeria ivanovii = experiment: MIC on DMSal agar (Example 15); assay type: cell-based; conditions: 1 strain
Description: as §1, with “[…],” for “nutrient agar medium was autoclaved and,”

Serratia marcescans = experiment: MIC on DMSal agar (Example 15); assay type: cell-based; conditions: 1 strain
Description: as §1, with “[…],” for “nutrient agar medium was autoclaved and,”

Acinetobacter baumanii = experiment: MIC on DMSal agar (Example 15); assay type: cell-based; conditions: 1 strain
Description: as §1, with “[…],” for “nutrient agar medium was autoclaved and,”

Escherichia coli = experiment: MIC on DMSal agar (Example 15); assay type: cell-based; conditions: 7 strains
Description: as §1, with “[…],” for “nutrient agar medium was autoclaved and,”

[2] = test system: Staphylococcus saprophyticus; experiment: MIC on DMSal agar (Example 15); assay type: cell-based; conditions: 1 strain
Description: as §1, with “[…],” for “nutrient agar medium was autoclaved and,”

Aeromonas hydrophilia = experiment: MIC on DMSal agar (Example 15); assay type: cell-based; conditions: 1 strain
Description: as §1, with “[…],” for “nutrient agar medium was autoclaved and,”

Group A Streptococcus = experiment: MIC on DMSal agar (Example 15); assay type: cell-based; conditions: 7 strains
Description: as §1, with “[…],” for “nutrient agar medium was autoclaved and,”

Staphylococcus aureus = experiment: MIC on DMSal agar (Example 15); assay type: cell-based; conditions: 14 strains
Description: as §1, with “[…],” for “nutrient agar medium was autoclaved and,”

Proteus mirabilis = experiment: MIC on DMSal agar (Example 15); assay type: cell-based; conditions: 1 strain
Description: as §1, with “[…],” for “nutrient agar medium was autoclaved and,”

Cronobacter sakazakii = experiment: MIC on DMSal agar (Example 15); assay type: cell-based; conditions: 1 strain
Description: as §1, with “[…],” for “nutrient agar medium was autoclaved and,”

Enterococcus faecium = experiment: MIC on DMSal agar (Example 15); assay type: cell-based; conditions: 1 strain
Description: as §1, with “[…],” for “nutrient agar medium was autoclaved and,”

Listeria innocua = experiment: MIC on DMSal agar (Example 15); assay type: cell-based; conditions: 1 strain
Description: as §1, with “[…],” for “nutrient agar medium was autoclaved and,”

Klebsiella aerogenes = experiment: MIC on DMSal agar (Example 15); assay type: cell-based; conditions: 1 strain
Description: as §1, with “[…],” for “nutrient agar medium was autoclaved and,”

Escherichia hermanii = experiment: MIC on DMSal agar (Example 15); assay type: cell-based; conditions: 1 strain
Description: as §1, with “[…],” for “nutrient agar medium was autoclaved and,”

Streptococcus agalactiae = experiment: MIC on DMSal agar (Example 15); assay type: cell-based; conditions: 5 strains
Description: as §1, with “[…],” for “nutrient agar medium was autoclaved and,”

[3] = test system: Staphylococcus epidermidis; experiment: MIC on DMSal agar (Example 15); assay type: cell-based; conditions: 3 strains
Description: as §1, with “[…],” for “nutrient agar medium was autoclaved and,”

Campylobacter coli = experiment: MIC on DMSal agar (Example 15); assay type: cell-based; conditions: 4 strains
Description: as §1, with “[…],” for “nutrient agar medium was autoclaved and,”

Campylobacter jejuni = experiment: MIC on DMSal agar (Example 15); assay type: cell-based; conditions: 4 strains
Description: as §1, with “[…],” for “nutrient agar medium was autoclaved and,”

Hafnia alvei = experiment: MIC on DMSal agar (Example 15); assay type: cell-based; conditions: 1 strain
Description: as §1, with “[…],” for “nutrient agar medium was autoclaved and,”

Streptoccocus viridans = experiment: MIC on DMSal agar (Example 15); assay type: cell-based; conditions: 1 strain
Description: as §1, with “[…],” for “nutrient agar medium was autoclaved and,”

Klebsiella pneumoniae = experiment: MIC on DMSal agar (Example 15); assay type: cell-based; conditions: 2 strains
Description: as §1, with “[…],” for “nutrient agar medium was autoclaved and,”

Group F Streptococcus = experiment: MIC on DMSal agar (Example 15); assay type: cell-based; conditions: 2 strains
Description: as §1, with “[…],” for “nutrient agar medium was autoclaved and,”

Enterobacter cloacae = experiment: MIC on DMSal agar (Example 15); assay type: cell-based; conditions: 2 strains
Description: as §1, with “[…],” for “nutrient agar medium was autoclaved and,”

Enterobacter aerogenes = experiment: MIC on DMSal agar (Example 15); assay type: cell-based; conditions: 1 strain
Description: as §1, with “[…],” for “nutrient agar medium was autoclaved and,”

[4] = test system: Salmonella enteriditis 723; experiment: MIC / growth in DMSal (Example 16); assay type: cell-based; conditions: Salmonella enteriditis 723, DMSal
Description: as §1, §2

Salmonella arizonae 1200 = experiment: MIC / growth in DMSal (Example 16); assay type: cell-based; conditions: Salmonella arizonae 1200, DMSal
Description: as §1, §2

Escherichia coli 122 = experiment: MIC / growth in DMSal (Example 16); assay type: cell-based; conditions: Escherichia coli 122, DMSal
Description: as §1, §2

Citrobacter freundii 370 = experiment: MIC / growth in DMSal (Example 16); assay type: cell-based; conditions: Citrobacter freundii 370, DMSal
Description: as §1, §2

[5] = test system: Klebsiella pneumoniae 758; experiment: MIC / growth in DMSal (Example 16); assay type: cell-based; conditions: Klebsiella pneumoniae 758, DMSal
Description: as §1, §2

Salmonella virchow 703 = experiment: MIC / growth in DMSal (Example 16); assay type: cell-based; conditions: Salmonella virchow 703, DMSal
Description: as §1, §2

[6] = test system: Klebsiella pneumoniae 411; experiment: MIC / growth in DMSal (Example 16); assay type: cell-based; conditions: Klebsiella pneumoniae 411, DMSal
Description: as §1, §2

Escherichia coli 199 = experiment: MIC / growth in DMSal (Example 16); assay type: cell-based; conditions: Escherichia coli 199, DMSal
Description: as §1, §2

[7] = test system: Salmonella typhimurium 722; experiment: MIC / growth in DMSal (Example 16); assay type: cell-based; conditions: Salmonella typhimurium 722, DMSal
Description: as §1, §2

Klebsiella aerogenes 323 = experiment: MIC / growth in DMSal (Example 16); assay type: cell-based; conditions: Klebsiella aerogenes 323, DMSal
Description: as §1, §2

Serratia marcescens 217 = experiment: MIC / growth in DMSal (Example 16); assay type: cell-based; conditions: Serratia marcescens 217, DMSal
Description: as §1, §2

Escherichia coli 481 = experiment: MIC / growth in DMSal (Example 16); assay type: cell-based; conditions: Escherichia coli 481, DMSal
Description: as §1, §2

Haemophilus influenzae = experiment: MIC on DMSal agar (Example 15); assay type: cell-based; conditions: 5 strains
[8] = test system: Cronobacterr sakazakii 1888; experiment: MIC / growth in DMSal (Example 16); assay type: cell-based, Cronobacter sakazakii; conditions: Cronobacterr sakazakii 1888, DMSal
Description: as §1, §2

Burkholderia cepacia = experiment: MIC on DMSal agar (Example 15); assay type: cell-based; conditions: 1 strain

In the case of `CC(NC(=O)C(N)Cc1c[nH]c2ccccc12)P(=O)(O)O` (stereo not shown) [Trp-AEP, tryptophan-AEP], the “concentration producing equivalent results to Ala-AEP at 1.5 μg/ml” value (E. coli strains) is reported as 0.25 µg/mL, the MIC (Streptococcus pneumonaie) is reported as over 256 µg/mL and the MIC (Yersinia enterocolitica) is reported as 4 to 8 µg/mL. The MIC (Salmonella) was 2 to 16 µg/mL, the MIC (Citrobacter freundii) was “approximately 1 μg/ml” and the MIC (Citrobacter freundii; listed as tryptophan-AEP) was 1 to 4 µg/mL. For the same compound, the MIC [1] was 2 µg/mL (≈ 6.43 µM), the MIC (Proteus vulgaris) was over 128 µg/mL and the MIC (Group D Streptococcus) was 16 µg/mL (≈ 51.4 µM). It also gave an MIC (Shigella) of at most 0.5 µg/mL, an MIC (Listeria ivanovii) of over 128 µg/mL and an MIC (Serratia marcescans) of 2 µg/mL (≈ 6.43 µM). The MIC (Acinetobacter baumanii) was over 256 µg/mL, the MIC (Escherichia coli) was at most 0.5 µg/mL and the MIC (Escherichia coli; listed as tryptophan-AEP) was 0.25 to 0.5 µg/mL. For the same compound, the MIC [2] was 64 µg/mL (≈ 206 µM), the MIC (Aeromonas hydrophilia) was 128 µg/mL (≈ 411 µM) and the MIC (Group A Streptococcus) was over 256 µg/mL. For the same compound, the MIC (Staphylococcus aureus) was 0.5 to 16 µg/mL, the MIC (Proteus mirabilis) was over 128 µg/mL and the MIC (Cronobacter sakazakii) was “approximately 1 μg/ml”. It also gave an MIC (Cronobacter sakazakii; listed as tryptophan-AEP) of 1 µg/mL (≈ 3.21 µM), an MIC (Enterococcus faecium) of over 256 µg/mL and an MIC (Listeria innocua) of 32 µg/mL (≈ 103 µM). For the same compound, the MIC (Klebsiella aerogenes) was 8 µg/mL (≈ 25.7 µM), the MIC (Escherichia hermanii) was 0.5 µg/mL (≈ 1.61 µM) and the MIC (Streptococcus agalactiae) was 128 µg/mL (≈ 411 µM). The MIC [3] was 4 to 16 µg/mL, the MIC (Campylobacter coli) was over 128 µg/mL and the MIC (Campylobacter jejuni) was over 128 µg/mL. The MIC (Hafnia alvei) was “approximately 1 μg/ml”, the MIC (Hafnia alvei; listed as tryptophan-AEP) was 1 µg/mL (≈ 3.21 µM) and the MIC (Streptoccocus viridans) was over 256 µg/mL. It also gave an MIC (Klebsiella pneumoniae) of 2 to 4 µg/mL, an MIC (Group F Streptococcus) of over 256 µg/mL and an MIC (Enterobacter cloacae) of 4 µg/mL (≈ 12.9 µM). For the same compound, the MIC (Enterobacter aerogenes) was 1 µg/mL (≈ 3.21 µM), the “MIC of Trp-AEP” value [4] was 3 µg/mL and the “MIC of Trp-AEP” value (Salmonella arizonae 1200) was 2 µg/mL. For the same compound, the “MIC of Trp-AEP” value (Escherichia coli 122) was 0.25 µg/mL, the “MIC of Trp-AEP” value (Citrobacter freundii 370) was 2 µg/mL and the “MIC of Trp-AEP” value [5] was 0.064 µg/mL. For the same compound, the “MIC of Trp-AEP” value (Salmonella virchow 703) was 3 µg/mL, the “MIC of Trp-AEP” value [6] was 2 µg/mL and the “MIC of Trp-AEP” value (Escherichia coli 199) was 0.25 µg/mL. For the same compound, the “MIC of Trp-AEP” value [7] was 3 µg/mL, the “MIC of Trp-AEP” value (Klebsiella aerogenes 323) was 3 µg/mL and the “MIC of Trp-AEP” value (Serratia marcescens 217) was 3 µg/mL. For the same compound, the “MIC of Trp-AEP” value (Escherichia coli 481) was 0.064 µg/mL, the MIC (Haemophilus influenzae) was over 128 µg/mL and the “MIC of Trp-AEP” value [8] was 0.125 µg/mL. It also gave an MIC (Burkholderia cepacia) of over 256 µg/mL.
